Measurements as given in ChEMBL document CHEMBL3091331, “Aminothiazole-featured pirinixic acid derivatives as dual 5-lipoxygenase and microsomal prostaglandin E2 synthase-1 inhibitors with improved potency and efficiency in vivo” (J Med Chem, 2013).
Activity calls are given as the source filed them. The calls are words filed in the database; no cut-off is given here.

What was measured:
[1] = test system: Mus musculus; test: Antiinflammatory activity in CD-1 mouse peritonitis model assessed as reduction in myeloperoxidase activity at 10 mg/kg, ip administered 30 mins prior to zymosan-challenge measured after 4 hrs by spectrophotometry relative to vehicle-treated control; type: functional; settings: CD-1, ip, route intraperitoneal
[2] = molecular target: T1, Prostaglandin E synthase (Homo sapiens, UniProt O14684); test: Inhibition of mPGES-1 from human A549 cell microsomal membranes using PGH2 as substrate incubated 15 mins prior to substrate addition measured after 1 min by RP-HPLC analysis
T1 sequence (O14684 whole entry): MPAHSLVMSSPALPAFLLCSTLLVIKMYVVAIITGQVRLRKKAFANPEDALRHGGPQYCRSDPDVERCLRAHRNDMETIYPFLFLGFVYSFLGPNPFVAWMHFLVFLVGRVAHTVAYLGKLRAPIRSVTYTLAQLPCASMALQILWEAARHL

[3] = test system: Radical scavenging activity; test: Antioxidant activity assessed as DPPH radical scavenging activity at 10 uM after 30 mins; type: functional
[4] = molecular target: T2, Polyunsaturated fatty acid lipoxygenase ALOX12 (Homo sapiens) (UniProt P18054); test: Inhibition of 12-lipoxygenase in human polymorphonuclear leukocytes using arachidonic acid as substrate assessed as remaining activity at 10 uM incubated 15 mins prior to substrate addition measured after 10 mins by HPLC analysis relative to control; type: cell-based
T2 sequence (whole entry): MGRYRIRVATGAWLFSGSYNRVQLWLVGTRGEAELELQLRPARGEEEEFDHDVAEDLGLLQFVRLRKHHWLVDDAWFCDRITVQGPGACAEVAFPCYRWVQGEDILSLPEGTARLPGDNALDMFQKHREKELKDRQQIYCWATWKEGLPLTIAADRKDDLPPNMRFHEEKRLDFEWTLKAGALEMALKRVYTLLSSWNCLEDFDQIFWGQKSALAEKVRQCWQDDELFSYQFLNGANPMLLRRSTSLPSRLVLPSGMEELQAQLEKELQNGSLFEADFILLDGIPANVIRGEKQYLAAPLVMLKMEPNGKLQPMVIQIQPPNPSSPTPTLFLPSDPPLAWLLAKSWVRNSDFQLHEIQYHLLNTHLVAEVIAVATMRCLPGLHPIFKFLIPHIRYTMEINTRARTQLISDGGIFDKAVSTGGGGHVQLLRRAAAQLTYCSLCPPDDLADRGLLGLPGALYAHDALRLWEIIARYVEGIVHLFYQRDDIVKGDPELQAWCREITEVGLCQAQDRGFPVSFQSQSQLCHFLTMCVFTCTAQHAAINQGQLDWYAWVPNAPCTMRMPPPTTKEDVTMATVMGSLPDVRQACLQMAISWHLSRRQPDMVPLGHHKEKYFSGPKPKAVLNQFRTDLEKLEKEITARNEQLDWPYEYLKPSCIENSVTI

[5] = Cytotoxicity against human polymorphonuclear leukocytes at 10 uM after 1 hr by light microscopic analysis
[6] = species: Homo sapiens; test: Translocation of 5-lipoxygenase from cytosol into nuclear membrane in A23187-stimulated human polymorphonuclear leukocytes assessed as enzyme product formation at 10 uM incubated for 15 mins prior to A23187-challenge measured after 5 mins by Western blotting analysis; type: functional
[7] = test system: Mus musculus; test: Reduction of LTC4 formation in CD-1 mouse peritonitis model at 10 mg/kg, ip administered 30 mins prior to zymosan-challenge measured after 30 mins by EIA relative to vehicle-treated control; type: functional; settings: CD-1, ip, route intraperitoneal
[8] = Cytotoxicity against human polymorphonuclear leukocytes at 10 uM after 1 hr by trypan blue staining
[9] = molecular target: Mitogen-activated protein kinase 1 (Homo sapiens) (UniProt P28482); test: Inhibition of fMLP-mediated ERK2 phosphorylation in human polymorphonuclear leukocytes incubated for 15 mins prior to fMLP-challenge measured after 1.5 mins by SDS-PAGE analysis; type: cell-based
[10] = (§1) Inhibition of reactive oxygen species generation in PMA-stimulated human polymorphonuclear leukocytes incubated for 15 mins prior to PMA-challenge by fluorescence assay; type: functional
[11] = species: Homo sapiens; test: as §1; type: functional
[12] = molecular target: T3, Polyunsaturated fatty acid 5-lipoxygenase (Homo sapiens, UniProt P09917); test: Inhibition of 5-lipoxygenase in A23187-stimulated human polymorphonuclear leukocytes using arachidonic acid as substrate incubated 15 mins prior to substrate addition measured after 10 mins by HPLC analysis
T3 sequence (P09917 whole entry): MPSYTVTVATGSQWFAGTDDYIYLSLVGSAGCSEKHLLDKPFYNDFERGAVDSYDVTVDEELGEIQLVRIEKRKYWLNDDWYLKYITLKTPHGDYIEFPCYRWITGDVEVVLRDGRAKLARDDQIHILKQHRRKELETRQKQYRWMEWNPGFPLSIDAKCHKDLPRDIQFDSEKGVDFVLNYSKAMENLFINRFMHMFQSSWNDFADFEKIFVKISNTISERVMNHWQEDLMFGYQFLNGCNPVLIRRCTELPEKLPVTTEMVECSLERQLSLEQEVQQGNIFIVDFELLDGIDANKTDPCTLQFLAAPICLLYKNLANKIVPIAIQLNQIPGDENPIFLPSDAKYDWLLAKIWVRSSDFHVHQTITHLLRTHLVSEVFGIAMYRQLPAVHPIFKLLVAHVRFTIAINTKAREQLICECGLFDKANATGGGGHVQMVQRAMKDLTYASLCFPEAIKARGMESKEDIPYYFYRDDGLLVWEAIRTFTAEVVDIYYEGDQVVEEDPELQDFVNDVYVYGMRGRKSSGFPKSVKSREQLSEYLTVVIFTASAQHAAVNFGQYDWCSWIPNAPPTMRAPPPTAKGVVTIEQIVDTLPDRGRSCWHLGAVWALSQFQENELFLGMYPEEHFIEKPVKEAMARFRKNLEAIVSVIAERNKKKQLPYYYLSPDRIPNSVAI

[13] = test system: Mus musculus; test: Antiinflammatory activity in CD-1 mouse peritonitis model assessed as reduction in neutrophil infiltration at 10 mg/kg, ip administered 30 mins prior to zymosan-challenge measured after 4 hrs by spectrophotometry relative to vehicle-treated control; type: functional; settings: CD-1, ip, route intraperitoneal
[14] = molecular target: MAP kinase p38 (Homo sapiens) (UniProt O15264+Q15759+Q16539+P53778); test: Inhibition of fMLP-mediated p38 MAPK phosphorylation in human polymorphonuclear leukocytes incubated for 15 mins prior to fMLP-challenge measured after 1.5 mins by SDS-PAGE analysis; type: cell-based
[15] = molecular target: T3, Polyunsaturated fatty acid 5-lipoxygenase; test: Inhibition of human recombinant 5-lipoxygenase expressed in Escherichia coli BL21 using arachidonic acid as substrate incubated 5 to 10 mins prior to substrate addition measured after 10 mins by HPLC analysis
[16] = (§2) Inhibition of reactive oxygen species generation in fMLP-stimulated human polymorphonuclear leukocytes incubated for 15 mins prior to fMLP-challenge by fluorescence assay; type: functional
[17] = species: Homo sapiens; test: as §2; type: functional
[18] = test system: Mus musculus; test: Reduction of 6-keto […] formation in CD-1 mouse peritonitis model at 10 mg/kg, ip administered 30 mins prior to zymosan-challenge measured after 4 hrs by EIA (reference value: 3.89 +/- 0.58 ng/ml); type: functional, organism-based; set-up: dose 10 mg/kg

Chain of Mitogen-activated protein kinase 1 (Homo sapiens) (P28482 whole entry): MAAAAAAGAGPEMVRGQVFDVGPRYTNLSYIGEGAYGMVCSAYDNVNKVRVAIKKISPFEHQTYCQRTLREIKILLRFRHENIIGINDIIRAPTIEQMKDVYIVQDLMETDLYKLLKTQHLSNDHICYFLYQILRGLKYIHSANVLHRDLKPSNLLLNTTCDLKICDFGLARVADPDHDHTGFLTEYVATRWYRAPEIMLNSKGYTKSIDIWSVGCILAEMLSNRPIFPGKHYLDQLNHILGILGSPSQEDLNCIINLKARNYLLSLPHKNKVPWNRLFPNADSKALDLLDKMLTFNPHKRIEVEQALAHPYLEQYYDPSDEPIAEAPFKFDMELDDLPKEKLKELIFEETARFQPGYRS

CCCCCCC(Sc1nc(Cl)cc(Nc2nc(-c3ccc4ccccc4c3)cs2)n1)C(=O)O (racemic)
inhibition in vivo at 10 mg/kg [1]: 23% | IC50 [2]: 400 nM | Activity [3]: inactive | Activity [4]: 168% | Activity [5]: Non-toxic | Activity [6]: inactive | inhibition in vivo at 10 mg/kg [7]: 84% | Activity [8]: Non-toxic | inhibition [9]: inactive | IC50 [10]: 8000 nM | inhibition [11]: Dose-dependent effect | IC50 [12]: 200 nM | inhibition in vivo at 10 mg/kg [13]: 45% | inhibition [14]: inactive | IC50 [15]: 300 nM | IC50 [16]: 3000 nM | inhibition [17]: Dose-dependent effect | inhibition [18]: inactive
